Experimental data reported in patent US20100152141A1, “COMBINATIONS COMPRISING 5HT6 MODULATORS AND CHOLINESTERASE INHIBITORS” (EPIX DELAWARE, INC, priority 2006, published 2010).

Assays:
[1] = system: adult male Lister hooded rats; test: novel object discrimination (NOD) task, natural forgetting with 4 h inter-trial interval; format: in vivo, rat
Protocol: NOD testing was performed as described by King et al. (2004 Neuropharmacol. 47 195), and used five separate groups (n=12) of adult male Lister hooded rats (145-235 g). Within each group rats were tested on 3-4 occasions (at one-week intervals) to receive all possible treatment combinations and serve as their own controls.

5-HT6 receptor = 5-HT6 receptor (Homo sapiens, UniProt P50406); test: 5-HT6 receptor affinity (Ki) of Compound A; format: binding
5-HT6 receptor, sequence (P50406 whole entry): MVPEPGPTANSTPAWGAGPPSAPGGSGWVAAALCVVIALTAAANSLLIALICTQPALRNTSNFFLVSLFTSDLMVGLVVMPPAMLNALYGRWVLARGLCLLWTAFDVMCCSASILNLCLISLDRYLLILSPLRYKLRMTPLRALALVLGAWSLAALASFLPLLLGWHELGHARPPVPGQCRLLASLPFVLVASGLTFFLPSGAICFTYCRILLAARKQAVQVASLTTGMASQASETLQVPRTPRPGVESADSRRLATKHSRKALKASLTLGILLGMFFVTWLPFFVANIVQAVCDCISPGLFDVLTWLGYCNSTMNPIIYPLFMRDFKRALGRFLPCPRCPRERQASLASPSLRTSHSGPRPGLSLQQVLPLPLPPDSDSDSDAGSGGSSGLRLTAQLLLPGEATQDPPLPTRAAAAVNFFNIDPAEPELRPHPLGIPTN

SMILES | natural forgetting (discrimination of novel versus familiar object) ([1]; Aricept 0.1 mg/kg i.p., 20 min pre-treatment, 4 h inter-trial interval) | natural forgetting (discrimination of novel versus familiar object) ([1]; Aricept 0.3 mg/kg i.p., 20 min pre-treatment, 4 h inter-trial interval) | discrimination ratio versus vehicle ([1]; Aricept 1 mg/kg i.p., 20 min pre-treatment) | natural forgetting (discrimination of novel versus familiar object) ([1]; Aricept 1 mg/kg i.p., 20 min pre-treatment, 4 h inter-trial interval, novel versus familiar p<0.001) | natural forgetting (discrimination of novel versus familiar object) ([1]; Compound A 0.3 mg/kg i.p. combined with sub-efficacious dose (0.1 mg/kg i.p.) of Aricept, novel versus familiar p<0.01) | natural forgetting (discrimination of novel versus familiar object) ([1]; Compound A 0.3 mg/kg i.p. given alone) | natural forgetting (discrimination of novel versus familiar object) ([1]; Compound A 1 mg/kg i.p. combined with sub-efficacious dose (0.1 mg/kg i.p.) of Aricept, novel versus familiar p<0.05) | natural forgetting (discrimination of novel versus familiar object) ([1]; Compound A 1 mg/kg i.p. given alone) | natural forgetting (discrimination of novel versus familiar object) ([1]; Compound A 3 mg/kg i.p., 40 min pre-treatment, 4 h inter-trial interval, novel versus familiar p<0.001) | discrimination ratio versus vehicle ([1]; Compound A 3 mg/kg i.p., 40 min pre-treatment, p<0.05 repeated measures ANOVA) | natural forgetting (discrimination of novel versus familiar object) ([1]; Compound A 10 mg/kg i.p., 40 min pre-treatment, 4 h inter-trial interval, novel versus familiar p<0.01) | discrimination ratio versus vehicle ([1]; Compound A 10 mg/kg i.p., 40 min pre-treatment, p<0.05 repeated measures ANOVA) | Ki (5-HT6 receptor)
COc1cc2c(cc1OC)C(=O)C(CC1CCN(Cc3ccccc3)CC1)C2 (stereo not shown) [Aricept, donepezil, reference compound] | lacked effect | lacked effect | without significantly increasing the discrimination ratio | prevented natural forgetting |  |  |  |  |  |  |  |  | 
COc1cc(Cl)cc(C(C)Nc2cc(N3CCNCC3)ccc2S(C)(=O)=O)c1OC.Cl (stereo not shown) [Compound A, [1-(5-Chloro-2,3-dimethoxy-phenyl)-ethyl]-(2-methanesulfonyl-5-piperazin-1-yl-phenyl)-amine hydrochloride] |  |  |  |  | restored discrimination | lacked significant effect | restored discrimination | lacked significant effect | prevented this natural forgetting | increased the discrimination ratio from vehicle levels | prevented this natural forgetting | increased the discrimination ratio from vehicle levels | 4 nM
